Reference: patent US10736864B2, “Immunotherapeutic agent” (Immodulon Therapeutics Limited, priority 2016, dated 2020)

How the values were obtained:
[1] = system: splenocytes stimulated in vitro with ovalbumin; test: In vitro splenocyte culture from treated mice, ovalbumin stimulation (cytokine ELISA); type: in vivo, BALB/c mice; settings: FIG. 3B; mice treated 5 μg s.c.; allergen (ovalbumin) stimulation; vs buffer
[2] = system: allergic mice challenged with ovalbumin; test: Murine model of allergic pulmonary inflammation: treatment studies (BAL cells and cytokines); type: in vivo, BALB/c mice; settings: vs vehicle; for number of eosinophils recovered in the BAL fluid / numbers of macrophages in BAL fluid / total cellular infiltrate in BAL fluid / IL-5 concentrations in the BAL fluid / IL-10 concentrations in the BAL fluid: Experiments 5 and 6, lipid 5 μg s.c.; for number of eosinophils recovered in the BAL fluid / numbers of macrophages in BAL fluid / total cellular infiltrate in BAL fluid: M. vaccae 0.1 mg s.c.
[3] = system: freshly isolated murine peritoneal macrophages; test: LPS-induced IL-6 secretion in freshly isolated peritoneal macrophages (ELISA); type: cell-based, BALB/c mice
Procedure: Experiment 7 was carried out to resolve if 10(Z)-hexadecenoic acid has a direct effect on immune cells. Macrophages were selected for this study on account of their ubiquity and diverse role in immune processes. To simulate inflammation, freshly isolated mouse peritoneal macrophages were challenged with lipopolysaccharide (LPS; 1 μg/mL) ex vivo.
Murine peritoneal macrophages were isolated as previously described (Zhang, X. et al. (2008)). Briefly, mice received one 1 ml i.p. injection of 3% thioglycollate medium (Cat. No. 9000-294, VWR, Radnor, Pa., USA). Ninety-six hours later, macrophages were collected in DPBS (Cat. No. 14190136, Invitrogen, Carlsbad, Calif., USA). Cells were centrifuged and resuspended in DMEM/F-12 (Cat. No. 10565018, Invitrogen) supplemented to be 10% (v/v) fetal bovine serum (Cat. No. 16000036, Invitrogen) and 1% penicillin/streptomycin (Cat. No. 15140148, Invitrogen). One mouse yielded enough cells for one experimental replicate. 1×10^5 cells/well were allowed to adhere for 1.5 h before being washed with DPBS. 10(Z)-hexadecenoic acid was dissolved in DMEM/F-12 with 0.5% (v/v) dimethyl sulfoxide (Cat. No. D8418, Sigma-Aldrich). The macrophages were incubated with either 10(Z)-hexadecenoic acid (0.4 μM, 4 μM, 20 μM, 100 μM, 500 μM, 1000 μM) or DMEM/F-12 for 1 h before being stimulated with 1 μg/ml lipopolysaccharide (serotype 0127:B8, Sigma-Aldrich, St. Louis, Mo., USA). Culture supernatants were collected at 6, 12, and 24 h post-stimulation.
Cell culture supernatants from freshly isolated peritoneal macrophages were diluted 1:200, and IL-6 was measured using sandwiched ELISA (Cat. No. 431304, Biolegend, San Diego, Calif., USA). All samples were measured in duplicate.

[4] = system: freshly isolated murine peritoneal macrophages; test: Proinflammatory cytokine and chemokine ligand mRNA levels (RNAseq) in LPS-stimulated peritoneal macrophages; type: cell-based
Procedure: This can be measured using RNAseq analysis of freshly isolated murine peritoneal macrophages stimulated with LPS, in the presence or absence of 10(Z)-hexadecenoic acid. […] Compounds of the invention are therefore useful in inhibiting the proinflammatory cascade that contributes to the pathology of sepsis.
This difference was observable as early as 6 h after LPS challenge, and was sustained for at least 24 h. The effect also appeared to be concentration and time dependent. The lowest concentration of 0.4 μM was ineffective at 6 h, but reduced IL-6 secretion to 40% of control levels at 24 h. This time and concentration dependence may indicate that a receptor-mediated transcriptional change is occurring. In contrast to the effects of 10(Z)-hexadecenoic acid on LPS-induced IL-6 secretion, it had no effect of IL-6 secretion by itself (FIG. 4D). A transcriptional change was confirmed by measurement of pro-inflammatory cytokine and chemokine ligand mRNA levels in macrophages pre-treated with 10(Z)-hexadecenoic acid for 1 h prior to LPS treatment (Table 2).

[5] = system: freshly isolated murine peritoneal macrophages; test: Sulforhodamine B (SRB) macrophage cell viability / cytotoxicity assay
Procedure: Sulforhodamine B (SRB) was used to assess cytotoxic effects of various concentrations of 10(Z)-hexadecenoic acid (10 μM, 50 μM, 100 μM, 250 μM, 500 μM, 1000 μM) after 0, 6, 12, 24, 48, and 72 h of incubation with freshly isolated murine peritoneal macrophages. Percent control growth is expressed as % viability and is a ratio of the amount of growth that occurred with treatment over the amount of growth that occurred in media. […] Data are expressed as mean±SEM of 3-7 mice per condition.
Cytotoxicity was determined using the sulforhodamine B (SRB) colorimetric assay, as previously described (Vichai and Kirtikara, 2006). Briefly, without removing the culture media, cells were fixed by adding cold trichloroacetic acid and incubated at 4° C. for 1 h. The plates were washed with slow-running tap water and set out to dry overnight. Then, 0.057% SRB (Cat. No. AC333130050, Fisher, Pittsburgh, Pa., USA), solubilized in 10 mMTris (Cat. No. BP153, Fisher), was added to each well. After 30 min, plates were washed with 1% acetic acid and set out to dry overnight. SRB was measured at 490 nm on a Synergy HT microplate reader (Part Number 7091000, Biotek, Winooski, Vt., USA). Cell viability was expressed as the ratio of experimental and control growth.

## CCCCC/C=C\CCCCCCCCC(=O)OCC(COC(=O)CCCCCCCC/C=C\CCCCC)OC(=O)CCCCCCCC/C=C\CCCCC [1,2,3-tri[Z-10-hexadecenoyl]glycerol]
[1]
  IL-5 levels in the supernatant of splenocytes: decrease
  IL-10 levels in the supernatant of splenocytes: increase
[2]
  number of eosinophils recovered in the BAL fluid: reduction
  numbers of macrophages in BAL fluid: not increased
  total cellular infiltrate in BAL fluid: reduction
  IL-5 concentrations in the BAL fluid: decrease
  IL-10 concentrations in the BAL fluid: increase

## CCCCC/C=C\CCCCCCCCC(=O)O [10(Z)-hexadecenoic acid]
[2]; Experiment 6
  numbers of neutrophils in BAL fluid: did not induce increases
[2]
  number of eosinophils recovered in the BAL fluid: significant reduction
  numbers of macrophages in BAL fluid: did not induce increases
  total cellular infiltrate in BAL fluid: significant reduction
  IL-5 concentrations in the BAL fluid: decrease
  IL-10 concentrations in the BAL fluid: increase
[3]; 0.4 μM, 6 h after LPS
  LPS-induced IL-6 secretion: ineffective
[3]; 0.4 μM, 24 h after LPS
  LPS-induced IL-6 secretion: 40 % of control levels
[3]; 1 h preincubation (0.4-1000 μM), LPS 1 μg/mL, 6, 12, 24 h, vs media alone
  LPS-induced IL-6 secretion: secreted less IL-6
[3]; absence of LPS, FIG. 4D
  IL-6 secretion by itself: no effect
[4]; preincubation then LPS, n = 3, LPS alone 24
  Ccl17 mRNA Mean #Reads s148.2 + LPS: 3
[4]; preincubation then LPS, n = 3, LPS alone 26
  II11 mRNA Mean #Reads s148.2 + LPS: 5
[4]; preincubation then LPS, n = 3, LPS alone 327
  Ccl22 mRNA Mean #Reads s148.2 + LPS: 117
[4]; preincubation then LPS, n = 3, LPS alone 603
  Ccl4 mRNA Mean #Reads s148.2 + LPS: 305
[4]; preincubation then LPS, n = 3, LPS alone 714
  II12a mRNA Mean #Reads s148.2 + LPS: 268
[4]; preincubation then LPS, n = 3, LPS alone 810
  Ccl6 mRNA Mean #Reads s148.2 + LPS: 368
[4]; preincubation then LPS, n = 3, LPS alone 1182
  Ccl7 mRNA Mean #Reads s148.2 + LPS: 441
[4]; preincubation then LPS, n = 3, LPS alone 1302
  II6 mRNA Mean #Reads s148.2 + LPS: 305
[4]; preincubation then LPS, n = 3, LPS alone 2098
  Tnf mRNA Mean #Reads s148.2 + LPS: 1023
[4]; preincubation then LPS, n = 3, LPS alone 4726, functional homologue of human IL-8
  Cxcl2 mRNA Mean #Reads s148.2 + LPS: 2680
[4]; preincubation then LPS, n = 3, LPS alone 5656
  Ccl2 mRNA Mean #Reads s148.2 + LPS: 2234
[4]; preincubation then LPS, n = 3, LPS alone 6693
  Ccl3 mRNA Mean #Reads s148.2 + LPS: 4067
[4]; preincubation then LPS, n = 3, LPS alone 15,957
  II1b mRNA Mean #Reads s148.2 + LPS: 5349
[4]; preincubation then LPS, n = 3, LPS alone 16533
  II1a mRNA Mean #Reads s148.2 + LPS: 8500
[4]; vs LPS alone
  Ccl2 mRNA Effect: ↓
  Ccl2 mRNA Fold-change: 0.39
  Ccl2 mRNA Log2 Fold-change: −1.34
  Ccl3 mRNA Effect: ↓
  Ccl3 mRNA Fold-change: 0.61
  Ccl3 mRNA Log2 Fold-change: −0.72
  Ccl4 mRNA Effect: ↓
  Ccl4 mRNA Fold-change: 0.51
  Ccl4 mRNA Log2 Fold-change: −0.98
  Ccl6 mRNA Effect: ↓
  Ccl6 mRNA Fold-change: 0.45
  Ccl6 mRNA Log2 Fold-change: −1.14
  Ccl7 mRNA Effect: ↓
  Ccl7 mRNA Fold-change: 0.37
  Ccl7 mRNA Log2 Fold-change: −1.42
  Ccl17 mRNA Effect: ↓
  Ccl17 mRNA Fold-change: 0.12
  Ccl17 mRNA Log2 Fold-change: −3.08
  Ccl22 mRNA Effect: ↓
  Ccl22 mRNA Fold-change: 0.36
  Ccl22 mRNA Log2 Fold-change: −1.48
  Cxcl2 mRNA Effect: ↓
  Cxcl2 mRNA Fold-change: 0.57
  Cxcl2 mRNA Log2 Fold-change: −0.82
  II1a mRNA Effect: ↓
  II1a mRNA Fold-change: 0.51
  II1a mRNA Log2 Fold-change: −0.96
  II1b mRNA Effect: ↓
  II1b mRNA Fold-change: 0.34
  II1b mRNA Log2 Fold-change: −2.16
  II6 mRNA Effect: ↓
  II6 mRNA Fold-change: 0.23
  II6 mRNA Log2 Fold-change: −2.09
  II11 mRNA Effect: ↓
  II11 mRNA Fold-change: 0.20
  II11 mRNA Log2 Fold-change: −2.35
  II12a mRNA Effect: ↓
  II12a mRNA Fold-change: 0.37
  II12a mRNA Log2 Fold-change: −1.42
  Tnf mRNA Effect: ↓
  Tnf mRNA Fold-change: 0.49
  Tnf mRNA Log2 Fold-change: −1.04
[5]; 1 mM, at most time points (0-72 h)
  viable macrophages: less than 40%
[5]; all other concentrations (10-500 μM), vs media controls
  macrophage viability: as viable as or more viable than media controls
